Reference: patent publication US10154813B1, “Method and apparatus for patient skin color monitoring and drug efficacy measurement” (priority 2017, dated 2018)
Where “and” joins values, the source holds several entries; their conditions need not be identical. Equal values may be shown once.

System: microvascular endothelium (skin, right arm, anterior position) of Congestive Heart Failure patients
Experiment: Skin colorimetry (a, b, L) before and after application of “μ” in Congestive Heart Failure patients on Valsartan, monthly for 9 months
Type: in vivo, human
Set-up: key to a. Wet after “μ”: a = red/green colour coordinate (colorimeter); key to b (Wet): b = yellow/blue colour coordinate (colorimeter)
Conditions: for L / a / b: baseline before μ; for L (Wet) / a. Wet after “μ” / b (Wet): wet after μ
From the text: As stated above, one available quantitative color system is the L*a*b* color space or Hunter L/a/b color space, which can be visualized as a rectangular 3D coordinate system. L indicates lightness, a is the red/green coordinate, and b is the yellow/blue coordinate. L can have a value from 0 (black) to 100 (perfect reflection). The a and b axes have no numerical limits. Coordinate a is positive when red, and negative when green. Positive b is yellow, and negative b is blue. Colors can be described numerically using numerical values for L, a, and b. Differences between two colors can be quantified for each of the individual L/a/b values (ΔL, Δa, Δb). Overall differences between two colors can be derived numerically based on the three Δ values.
μ=drug applied before colorimeter and/or spectrophotometer measurements.
L1, a1, b1=Initial measurement.
L2, a2, b2=Measurement with μ applied. L2−L1=ΔLμ(L2 minus L1)=change in lightness and darkness(+=lighter,−=darker) a2−a1=Δaμ(a2 minus a1)=change in red and green(+=redder,−=greener) b2−b1=Δbμ(b2 minus b1)=change in yellow and blue(+=yellower,−=bluer)
With reference to the tables below and to FIG. 18, the three different patients (Patient A, Patient B, and Patient C) had new diagnosis of Congestive Heart Failure (CHF). Patient A, B, C have diastolic and systolic heart failure with an ejection fraction of 35% with normal coronary artery disease by angiography. All three patients were started on an angiotensin receptor blocker Valsartan and followed continuously every month for 9 months. The a, b, L were calculated before and after the “μ” has been applied shown in color red. The blue indicates the baseline. At the initiation of the CHF medication Valsartan, the patient has a normal response of the microvascular endothelium after the application of “μ” in the calculations of a, b, L. All colorimetric and spectrophotometric calculations are performed at the same location on the right arm, in the anterior position in all three patients continuously for 9 months. The titration of Valsartan was maximized in all three patients. […] This occurs because it is the desired effect of the CHF medication in the above patients over the period of 9 months. The current standard of care is to improve the heart function in CHF. The cardiologist lowers the ionotropic and chronotropic effect of the heart in CHF patients. The above methodology allows for the appropriate and desired effect in being able to titrate the medication and know how much medicine to administer to the patient by either decreasing or increasing the Valsartan dose. This is performed to achieve the necessary effect of pharmacotherapy with limiting the exacerbation of heart failure symptoms in such patients. It allows for healthcare providers to also know if the effects of the medications are adequate and they are in fact working appropriately on the microscopic endothelium level of the patient. As the months progressed in the patients above, the red line calculations indicate a decreased microvascular endothelial flow. This is evaluated by measuring a decrease in the a shift.
This correlates with a decrease in the ionotropic and chronotropic effect of the heart in these patients. This is the desired effect and outcome that the cardiologist is trying to achieve. The calculation of a, b, L, after “μ” is applied is objectively calculated in these CHF patients, allowing for the proper titration of maximum medication administration while limiting the side effects of the medications concurrently.

CCCCC(=O)N(Cc1ccc(-c2ccccc2-c2nnn[nH]2)cc1)[C@H](C(=O)O)C(C)C [Valsartan]
L (Patient A, April 2017): 70.87 | a (Patient A, April 2017): 5.05 | b (Patient A, April 2017): 16.72 | L (Patient A, December 2016): 70.63 | a (Patient A, December 2016): 5.20 | b (Patient A, December 2016): 16.61 | L (Patient A, February 2017): 70.24 | a (Patient A, February 2017): 5.12 | b (Patient A, February 2017): 15.42 | L (Patient A, January 2017): 71.68 | a (Patient A, January 2017): 4.70 | b (Patient A, January 2017): 14.67 | L (Patient A, July 2017): 71.63 | a (Patient A, July 2017): 5.48 | b (Patient A, July 2017): 14.62 | L (Patient A, June 2017): 69.91 | a (Patient A, June 2017): 5.02 | b (Patient A, June 2017): 15.64 | L (Patient A, March 2017): 70.42 | a (Patient A, March 2017): 5.14 | b (Patient A, March 2017): 16.14 | L (Patient A, May 2017): 71.99 | a (Patient A, May 2017): 4.98 | b (Patient A, May 2017): 15.47 | L (Patient A, November 2016): 70.10 | a (Patient A, November 2016): 5.59 | b (Patient A, November 2016): 15.39 | L (Wet) (Patient A, April 2017): 70.72 | a. Wet after “μ” (Patient A, April 2017): 4.54 | b (Wet) (Patient A, April 2017): 16.78 | L (Wet) (Patient A, December 2016): 69.98 | a. Wet after “μ” (Patient A, December 2016): 6.35 | b (Wet) (Patient A, December 2016): 16.81 | L (Wet) (Patient A, February 2017): 70.12 | a. Wet after “μ” (Patient A, February 2017): 6.08 | b (Wet) (Patient A, February 2017): 16.44 | L (Wet) (Patient A, January 2017): 71.76 | a. Wet after “μ” (Patient A, January 2017): 6.48 | b (Wet) (Patient A, January 2017): 16.48 | L (Wet) (Patient A, July 2017): 70.04 | a. Wet after “μ” (Patient A, July 2017): 4.46 | b (Wet) (Patient A, July 2017): 16.31 | L (Wet) (Patient A, June 2017): 70.54 | a. Wet after “μ” (Patient A, June 2017): 4.43 | b (Wet) (Patient A, June 2017): 15.89 | L (Wet) (Patient A, March 2017): 69.42 | a. Wet after “μ” (Patient A, March 2017): 4.64 | b (Wet) (Patient A, March 2017): 16.85 | L (Wet) (Patient A, May 2017): 69.79 | a. Wet after “μ” (Patient A, May 2017): 4.20 | b (Wet) (Patient A, May 2017): 15.62 | L (Wet) (Patient A, November 2016): 68.40 | a. Wet after “μ” (Patient A, November 2016): 7.06 | b (Wet) (Patient A, November 2016): 16.16 | L (Patient B, April 2017): 73.95 | a (Patient B, April 2017): 3.25 | b (Patient B, April 2017): 15.34 | L (Patient B, December 2016): 72.77 | a (Patient B, December 2016): 3.36 | b (Patient B, December 2016): 4.88 | L (Patient B, February 2017): 74.52 | a (Patient B, February 2017): 3.06 | b (Patient B, February 2017): 13.98 | L (Patient B, January 2017): 74.06 | a (Patient B, January 2017): 2.66 | b (Patient B, January 2017): 15.09 | L (Patient B, July 2017): 74.23 | a (Patient B, July 2017): 4.20 | b (Patient B, July 2017): 14.14 | L (Patient B, June 2017): 74.05 | a (Patient B, June 2017): 3.85 | b (Patient B, June 2017): 14.35 | L (Patient B, March 2017): 74.43 | a (Patient B, March 2017): 3.09 | b (Patient B, March 2017): 14.08 | L (Patient B, May 2017): 73.52 | a (Patient B, May 2017): 3.40 | b (Patient B, May 2017): 15.02 | L (Patient B, November 2016): 73.44 | a (Patient B, November 2016): 4.15 | b (Patient B, November 2016): 13.69 | L (Wet) (Patient B, April 2017): 72.58 | a. Wet after “μ” (Patient B, April 2017): 3.03 | b (Wet) (Patient B, April 2017): 15.69 | L (Wet) (Patient B, December 2016): 73.59 | a. Wet after “μ” (Patient B, December 2016): 4.04 | b (Wet) (Patient B, December 2016): 15.27 | L (Wet) (Patient B, February 2017): 72.56 | a. Wet after “μ” (Patient B, February 2017): 3.3 | b (Wet) (Patient B, February 2017): 14.4 | L (Wet) (Patient B, January 2017): 74.23 | a. Wet after “μ” (Patient B, January 2017): 3.37 | b (Wet) (Patient B, January 2017): 15.38 | L (Wet) (Patient B, July 2017): 72.54 | a. Wet after “μ” (Patient B, July 2017): 2.25 | b (Wet) (Patient B, July 2017): 14.39 | L (Wet) (Patient B, June 2017): 72.47 | a. Wet after “μ” (Patient B, June 2017): 2.88 | b (Wet) (Patient B, June 2017): 15.29 | L (Wet) (Patient B, March 2017): 72.62 | a. Wet after “μ” (Patient B, March 2017): 3.29 | b (Wet) (Patient B, March 2017): 15.85 | L (Wet) (Patient B, May 2017): 73.47 | a. Wet after “μ” (Patient B, May 2017): 3.71 | b (Wet) (Patient B, May 2017): 15.54 | L (Wet) (Patient B, November 2016): 70.43 | a. Wet after “μ” (Patient B, November 2016): 4.89 and 4.79 | b (Wet) (Patient B, November 2016): 15.14 | L (Patient C, April 2017): 73.05 | a (Patient C, April 2017): 3.16 | b (Patient C, April 2017): 16.12 | L (Patient C, December 2016): 75.47 | a (Patient C, December 2016): 2.84 | b (Patient C, December 2016): 13.73 | L (Patient C, February 2017): 73.55 | a (Patient C, February 2017): 3.64 | b (Patient C, February 2017): 14.96 | L (Patient C, January 2017): 74.63 | a (Patient C, January 2017): 3.93 | b (Patient C, January 2017): 15.73 | L (Patient C, July 2017): 75.00 | a (Patient C, July 2017): 3.55 | b (Patient C, July 2017): 14.75 | L (Patient C, June 2017): 74.45 | a (Patient C, June 2017): 3.44 | b (Patient C, June 2017): 14.63 | L (Patient C, March 2017): 74.06 | a (Patient C, March 2017): 3.20 | b (Patient C, March 2017): 14.54 | L (Patient C, May 2017): 75.26 | a (Patient C, May 2017): 3.50 | b (Patient C, May 2017): 15.22 | L (Patient C, November 2016): 73.84 | a (Patient C, November 2016): 3.35 | b (Patient C, November 2016): 14.01 | L (Wet) (Patient C, April 2017): 72.89 | a. Wet after “μ” (Patient C, April 2017): 2.95 | b (Wet) (Patient C, April 2017): 17.26 | L (Wet) (Patient C, December 2016): 72.57 | a. Wet after “μ” (Patient C, December 2016): 4.84 | b (Wet) (Patient C, December 2016): 14.8 | L (Wet) (Patient C, February 2017): 72.41 | a. Wet after “μ” (Patient C, February 2017): 3.07 | b (Wet) (Patient C, February 2017): 15.66 | L (Wet) (Patient C, January 2017): 74.12 | a. Wet after “μ” (Patient C, January 2017): 3.18 | b (Wet) (Patient C, January 2017): 15.31 | L (Wet) (Patient C, July 2017): 74.72 | a. Wet after “μ” (Patient C, July 2017): 2.3 | b (Wet) (Patient C, July 2017): 14.39 | L (Wet) (Patient C, June 2017): 72.13 | a. Wet after “μ” (Patient C, June 2017): 2.75 | b (Wet) (Patient C, June 2017): 15.6 | L (Wet) (Patient C, March 2017): 73.55 | a. Wet after “μ” (Patient C, March 2017): 3.05 | b (Wet) (Patient C, March 2017): 13.67 | L (Wet) (Patient C, May 2017): 73.69 | a. Wet after “μ” (Patient C, May 2017): 3.1 | b (Wet) (Patient C, May 2017): 15.17 | L (Wet) (Patient C, November 2016): 71.42 | a. Wet after “μ” (Patient C, November 2016): 4.99 | b (Wet) (Patient C, November 2016): 14.01 | effect on flow to the microvascular circulation of the endothelium (a shift after μ) (Patients A, B, C, at rest, over 9 months, maximized titration): a decrease in the flow to the microvascular circulation of the endothelium at rest
